Source: the supplement of paper PMC4862054
“And” between values parts separate entries of the source, which are not always exact repeats. Identical values can stand only once.

Experiments:
MDA-MB-468 [1] = settings: 72 h
Outline: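 In this assay, breast cancer cell lines spent 72 h with compound at 5 concentrations in 10-fold steps over a compound-specific 10,000-fold range. The first readout was cell death by CellTox Green fluorescence, and the second was viability by CellTiter-Glo luminescence, each normalised per plate to 0.1 % DMSO and a positive kill control. EC50 came from the dose-response curves, censored at the top concentration.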

CAL-120 = experiment: normalised viability (% of control), CellTiter-Blue; higher = more viable cells (about 100 = DMSO control); settings: incubation time: 72 h
Outline: (§1)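 Each value is normalised viability at a single listed concentration of the series. Breast cancer cell lines in 384-well plates were incubated 72 h with compound and read by CellTiter-Blue fluorescence at 560/590 nm, with vehicle set to 100 and a positive kill control to 0 on every plate.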

CAL-148 = experiment: as above; settings: incubation time: 72 h
Outline: as §1

CAL-85-1 [2] = experiment: as above; settings: incubation time: 72 h
Outline: as §1

DU-4475 = experiment: as above; settings: incubation time: 72 h
Outline: as §1

HCC1143 = experiment: as above; settings: incubation time: 72 h
Outline: as §1

HCC1599 [3] = experiment: as above; settings: incubation time: 72 h
Outline: as §1

HCC1937 [4] = experiment: as above; settings: incubation time: 72 h
Outline: as §1

HDQ-P1 = experiment: as above; settings: incubation time: 72 h
Outline: as §1

Hs578T = experiment: as above; settings: incubation time: 72 h
Outline: as §1

MDA-MB-231 [5] = experiment: as above; settings: incubation time: 72 h
Outline: as §1

MDA-MB-436 [6] = experiment: as above; settings: incubation time: 72 h
Outline: as §1

MDA-MB-453 = experiment: as above; settings: incubation time: 72 h
Outline: as §1

MDA-MB-468 [7] = experiment: as above; settings: incubation time: 72 h
Outline: as §1

SK-BR-3 = experiment: as above; settings: incubation time: 72 h
Outline: as §1

CAL-85-1 [8] = experiment: drug sensitivity score (DSS), CellTox Green (DSS (AUC-based score)); higher = stronger drug effect (viability inhibition or cytotoxicity); extreme values may be limits of the assay; settings: incubation time: 72 h
Outline: (§2)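 After 72 h of incubation in 384-well plates with compound at 5 concentrations (10-fold steps, 10,000-fold range set per compound), breast cancer cell lines seeded in 20 µl suspension were read first for CellTox Green fluorescence at 485/520 nm. CellTiter-Glo luminescence was measured next, after 10 min at room temperature. Normalisation on each plate used 0.1 % DMSO and a positive kill control, and the drug sensitivity score was computed from the area under the fitted dose-response curve.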

HCC1599 [9] = experiment: as above; settings: incubation time: 72 h
Outline: as §2

HCC1937 [10] = experiment: as above; settings: incubation time: 72 h
Outline: as §2

MCF-10A = experiment: as above; settings: incubation time: 72 h
Outline: as §2

MDA-MB-231 [11] = experiment: as above; settings: incubation time: 72 h
Outline: as §2

MDA-MB-436 [12] = experiment: as above; settings: incubation time: 72 h
Outline: as §2

MDA-MB-468 [13] = experiment: as above; settings: incubation time: 72 h
Outline: as §2

MFM-223 = experiment: as above; settings: incubation time: 72 h
Outline: as §2

CCc1c2c(nc3ccc(OC(=O)N4CCC(N5CCCCC5)CC4)cc13)-c1cc3c(c(=O)n1C2)COC(=O)[C@]3(O)CC [Irinotecan]
Settings | EC50, CellTiter-Glo [µM] | drug sensitivity score
CAL-85-1 [8] | – | 0
HCC1599 [9] | – | 0
HCC1937 [10] | – | 0
MCF-10A | – | 0
MDA-MB-231 [11] | – | 0
MDA-MB-436 [12] | – | 0
MDA-MB-468 [1] | 1.62 | –
MDA-MB-468 [13] | – | 0
MFM-223 | – | 0

Settings | normalised viability
CAL-85-1 [2], 3 nM | 94.6% and 96.1%
CAL-85-1 [2], 30 nM | 78.8% and 92.5%
CAL-85-1 [2], 100 nM | 86.4% and 103%
CAL-120, 10 nM | 83.3% and 96.8%
CAL-120, 1000 nM | 68.2% and 89.1%
CAL-120, 10000 nM | 47.4% and 55.8%
CAL-148, 3 nM | 77.4% and 98.8%
CAL-148, 30 nM | 90.3% and 101%
CAL-148, 100 nM | 80.5% and 99.7%
DU-4475, 3 nM | 111% and 115%
DU-4475, 30 nM | 87.3% and 103%
DU-4475, 100 nM | 101% and 93.7%
HCC1143, 10 nM | 74.2% and 87.3%
HCC1143, 1000 nM | 91.4% and 95.9%
HCC1143, 10000 nM | 47.7% and 62.6%
HCC1599 [3], 10 nM | 81.2% and 102%
HCC1599 [3], 1000 nM | 74.3% and 81.7%
HCC1599 [3], 10000 nM | 57.8% and 78.1%
HCC1937 [4], 10 nM | 110% and 91.4%
HCC1937 [4], 1000 nM | 54.7% and 60.4%
HCC1937 [4], 10000 nM | 27.8% and 10.4%
HDQ-P1, 3 nM | 109% and 101%
HDQ-P1, 30 nM | 99.4% and 104%
HDQ-P1, 100 nM | 99.8% and 101%
Hs578T, 10 nM | 98.6% and 100%
Hs578T, 1000 nM | 83% and 95.2%
MDA-MB-231 [5], 10 nM | 85.2% and 94.5%
MDA-MB-231 [5], 1000 nM | 84.7% and 89.4%
MDA-MB-231 [5], 10000 nM | 72.8% and 78.7%
MDA-MB-436 [6], 10 nM | 89.1% and 93%
MDA-MB-436 [6], 1000 nM | 79.6% and 92.3%
MDA-MB-453, 3 nM | 101% and 124%
MDA-MB-453, 30 nM | 85.5% and 96.2%
MDA-MB-453, 100 nM | 99.8% and 110%
MDA-MB-468 [7], 10 nM | 106% and 105%
MDA-MB-468 [7], 1000 nM | 76% and 87.3%
MDA-MB-468 [7], 10000 nM | 35.5% and 42.8%
SK-BR-3, 10 nM | 92.4% and 108%
SK-BR-3, 10000 nM | 36.6% and 41.3%

c1ccc2c(CCNc3ccc(Nc4ccncc4)cc3)c[nH]c2c1 [Serdemetan]
Settings | EC50, CellTiter-Glo [µM] | drug sensitivity score
CAL-85-1 [8] | – | 0
HCC1599 [9] | – | 0
HCC1937 [10] | – | 0
MCF-10A | – | 0
MDA-MB-231 [11] | – | 2.18
MDA-MB-436 [12] | – | 0
MDA-MB-468 [1] | 2.28 | –
MDA-MB-468 [13] | – | 0
MFM-223 | – | 1.92

normalised viability [%]
Settings | 3 nM | 10 nM | 30 nM | 100 nM | 1000 nM | 10000 nM
CAL-85-1 [2] | 93.3 | – | 85.8 | 84.5 | – | –
CAL-120 | – | 88 | – | – | 91.4 | 48.1
CAL-148 | 88.9 | – | 86.1 | 96.3 | – | –
DU-4475 | 93.1 | – | 88.3 | 89.6 | – | –
HCC1143 | – | 87.7 | – | – | 77.7 | 43.3
HCC1599 [3] | – | 103 | – | – | 93.8 | 74.6
HCC1937 [4] | – | 91.2 | – | – | 94.3 | 51.4
HDQ-P1 | 97.5 | – | 99.7 | 96.7 | – | –
Hs578T | – | 108 | – | – | 91.5 | 66.8
MDA-MB-231 [5] | – | 88.4 | – | – | 89.5 | 58.2
MDA-MB-436 [6] | – | 96.8 | – | – | 51.4 | 43.6
MDA-MB-453 | 119 | – | 93.8 | 104 | – | –
MDA-MB-468 [7] | – | 111 | – | – | 103 | 60.9
SK-BR-3 | – | 96.6 | – | – | 116 | 72.2

O=C(Nc1ccncc1)C(=O)c1cn(Cc2ccc(Cl)cc2)c2ccccc12 [Indibulin]
Settings | EC50, CellTiter-Glo [µM] | drug sensitivity score
CAL-85-1 [8] | – | 11.7
HCC1599 [9] | – | 0
HCC1937 [10] | – | 0
MCF-10A | – | 0
MDA-MB-231 [11] | – | 8.72
MDA-MB-436 [12] | – | 0
MDA-MB-468 [1] | 0.273 | –
MDA-MB-468 [13] | – | 3.09
MFM-223 | – | 4.4

normalised viability [%]
Settings | 3 nM | 10 nM | 30 nM | 100 nM | 1000 nM | 10000 nM
CAL-85-1 [2] | 102 | – | 91.3 | 95 | – | –
CAL-120 | – | 85.7 | – | – | 35.9 | 28.1
CAL-148 | 95.4 | – | 92.1 | 94.5 | – | –
DU-4475 | 111 | – | 93.7 | 123 | – | –
HCC1143 | – | 80.7 | – | – | 41.1 | 41
HCC1599 [3] | – | 113 | – | – | 124 | 103
HCC1937 [4] | – | 74.5 | – | – | 21.1 | 23.1
HDQ-P1 | 90.5 | – | 87.7 | 74.8 | – | –
Hs578T | – | 110 | – | – | 56.3 | 18.5
MDA-MB-231 [5] | – | 103 | – | – | 20.3 | 16.1
MDA-MB-436 [6] | – | 111 | – | – | 41.4 | 66.3
MDA-MB-453 | 97.2 | – | 61.7 | 65.5 | – | –
MDA-MB-468 [7] | – | 95.7 | – | – | 49.8 | 36.7
SK-BR-3 | – | 94.5 | – | – | 19.9 | 20.6

CO[C@H]1C[C@@H]2CC[C@@H](C)[C@@](O)(O2)C(=O)C(=O)N2CCCC[C@H]2C(=O)O[C@H]([C@H](C)C[C@@H]2CC[C@@H](OP(C)(C)=O)[C@H](OC)C2)CC(=O)[C@H](C)/C=C(\C)[C@@H](O)[C@@H](OC)C(=O)[C@H](C)C[C@H](C)/C=C/C=C/C=C/1C [Ridaforolimus]
Settings | EC50, CellTiter-Glo [µM] | drug sensitivity score
CAL-85-1 [8] | – | 0
HCC1599 [9] | – | 0
HCC1937 [10] | – | 0
MCF-10A | – | 0
MDA-MB-231 [11] | – | 0.968
MDA-MB-436 [12] | – | 4.09
MDA-MB-468 [1] | 0.00033 | –
MDA-MB-468 [13] | – | 0
MFM-223 | – | 0

normalised viability [%]
Settings | 0.3 nM | 1 nM | 3 nM | 10 nM | 100 nM | 1000 nM
CAL-85-1 [2] | 68 | – | 57.1 | 59.5 | – | –
CAL-120 | – | 70 | – | – | 50 | 46.9
CAL-148 | 79.9 | – | 43.8 | 36.6 | – | –
DU-4475 | 100 | – | 61.7 | 57.9 | – | –
HCC1143 | – | 71.5 | – | – | 56.1 | 56.8
HCC1599 [3] | – | 105 | – | – | 98.7 | 72.5
HCC1937 [4] | – | 52.4 | – | – | 62.5 | 69.5
HDQ-P1 | 96.2 | – | 90.1 | 74.4 | – | –
Hs578T | – | 62.9 | – | – | 57.2 | 54.3
MDA-MB-231 [5] | – | 86.4 | – | – | 81.8 | 70.4
MDA-MB-436 [6] | – | 81.3 | – | – | 94.5 | 79
MDA-MB-453 | 85.4 | – | 30 | 24.5 | – | –
MDA-MB-468 [7] | – | 66.4 | – | – | 59.3 | 60.4
SK-BR-3 | – | 79.8 | – | – | 51 | 42.4
